Data published in patent US20040171511A1, “Allergen removing agent” (priority 2001, published 2004).

Source text: Component (c1-1) is preferably in a state that it is soluble in the allergen-removing agent.

CCCCCCCCCCCCCCCCO [palmityl alcohol]
solubility in component (a): ≥ 5 g/100 g
solubility in water: ≤ 0.3 g/100 g
